This experiment concerns the target CB1 receptor (Homo sapiens, UniProt P21554). Nature of the experiment: CB1 cAMP Antagonist Assay (LANCE Ultra cAMP kit). It is filed as cell-based. To be noted: Flp-In CHO cells stably expressing the CB1 receptor; forskolin and CP55940 agonist at EC90; cAMP FRET readout. The text has this: CB1 cAMP Antagonist Assay
LANCE Ultra cAMP kit (Perkin Elmer) was used to quantitate the amount of 3′,5′-cyclic adenosine monophosphate (cAMP) produced in Flp-In CHO (Invitrogen) cells stably expressing the CB1 receptor.
Forskolin was initially titrated to determine the response of the cells. The EC90 of forskolin was used for compound testing. CP55940 was titrated and used with EC90 of forskolin to determine the level of agonist stimulation. EC90 of the agonist was used for subsequent compound testing.
Forskolin (Sigma), CP55940 (Cayman Chemicals), and AM251 (MCE) were diluted in 100% DMSO, starting at 100 mM, 1 mM, and 1 mM respectively, in 3-fold serial dilutions. Test compounds were diluted in 100% DMSO starting from 10 mM, 3-fold dilutions. The cAMP assay buffer contains 1x Hank’s Buffered Saline Solution with Ca^2+ and Mg^2+ (Invitrogen), 5.3 mM HEPES (Invitrogen), 0.05% BSA, 0.5 mM IBMX (Sigma).
For all assays, cells were harvested, counted, and diluted in cAMP assay buffer to 1× 10^5 cells/mL. Only cells with viability >85% were used for the assay. Cells were seeded at 1000 cells/well in 384-well plates and 10 nL/well AM251 or test compound was added and incubated at 37° C. for 10 min. […] To detect the amount of cAMP produced, 5 µL of a 100x diluted stock of Eu-cAMP tracer and 5 µL of 200x diluted stock of Ulight-anti-cAMP were added to each well, and the plate incubated at 25° C. for 15 min. The FRET signal was read using an EnVision microplate reader (λex=320 nm, λem=615 nm and 665 nm).
The IC50 is determined by fitting the percentage of inhibition as a function of compound concentrations with the Hill equation, using a 4-parameter fit in either XLfit or GraphPad Prism.
On the technique in general: TR-FRET usually uses a lanthanide donor and a delayed reading to cut background.

Sequence of CB1 receptor (P21554 whole entry): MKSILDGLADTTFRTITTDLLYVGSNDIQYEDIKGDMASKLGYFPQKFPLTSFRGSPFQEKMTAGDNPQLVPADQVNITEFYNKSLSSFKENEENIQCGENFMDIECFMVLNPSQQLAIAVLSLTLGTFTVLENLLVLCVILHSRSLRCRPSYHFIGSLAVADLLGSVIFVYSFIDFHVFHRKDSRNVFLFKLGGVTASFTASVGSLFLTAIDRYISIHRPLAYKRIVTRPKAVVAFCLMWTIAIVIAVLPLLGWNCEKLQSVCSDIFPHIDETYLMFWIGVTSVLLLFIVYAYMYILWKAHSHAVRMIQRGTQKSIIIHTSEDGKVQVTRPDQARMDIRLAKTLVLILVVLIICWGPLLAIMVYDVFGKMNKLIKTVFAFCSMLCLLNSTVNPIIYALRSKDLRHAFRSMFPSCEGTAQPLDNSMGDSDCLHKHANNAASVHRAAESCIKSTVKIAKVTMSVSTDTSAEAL

Broadly, the IC50 is the midpoint of a concentration-inhibition curve. Low readings indicate greater potency in that assay, high ones weaker potency in that assay. In the case of `CC(C(N)=O)n1c(N2C[C@H](c3ccccc3)C(c3ccc(Cl)cc3)=N2)nn(Cc2ccc(CN3CCOCC3)cc2)c1=O` (stereo partly shown) [Compound 167], the IC50 was 0.1 to 1 µM.

In the case of `COC(=O)c1ccc(Cn2nc(N3CC(c4ccccc4)C(c4ccc(Cl)cc4)=N3)n(C)c2=O)cc1` (stereo not shown) [Compound 168], the IC50 was less than 0.1 µM.

Consider `Cn1c(N2C[C@H](c3ccccc3)C(c3ccc(Cl)cc3)=N2)nn(Cc2ccccc2)c1=O` [Compound 169], for which the IC50 is less than 0.1 µM.

Turning to `Cn1c(N2CC(c3ccccc3)C(c3ccc(Cl)cc3)=N2)nn(Cc2cccc(C#N)c2)c1=O` (stereo not shown) [Compound 170], the IC50 is less than 0.1 µM.

`Cn1c(N2CC(c3ccccc3)C(c3ccc(Cl)cc3)=N2)nn(Cc2ccccc2Cl)c1=O` (stereo not shown) [Compound 171] had an IC50 of less than 0.1 µM.

Take `Cn1c(N2C[C@H](c3ccccc3)C(c3ccc(Cl)cc3)=N2)n[nH]c1=O` [Compound 172, 5-[(4S)-3-(4-chlorophenyl)-4-phenyl-4,5-dihydropyrazol-1-yl]-4-methyl-2H-1,2,4-triazol-3-one]: the IC50 was 1 to 5 µM.

Molecule `Cn1c(N2CC(c3ccccc3)C(c3ccc(Cl)cc3)=N2)nn(Cc2ccc(C(=O)NCCO)cc2)c1=O` (stereo not shown) [Compound 173] yielded an IC50 of 1 to 5 µM.

`C[C@H](C(N)=O)n1c(N2C[C@H](c3ccccc3)C(c3ccc(Cl)cc3)=N2)nn(Cc2ccc(Cl)cc2)c1=O` [Compound 174]: the IC50 was less than 0.1 µM.

Molecule `Cc1ccc(Cn2nc(N3CC(c4ccccc4)C(c4ccc(Cl)cc4)=N3)n(C)c2=O)cc1F` (stereo not shown) [Compound 175] displayed an IC50 of less than 0.1 µM.

Consider `C[C@@H](C(N)=O)n1c(N2C[C@H](c3ccccc3)C(c3ccc(Cl)cc3)=N2)nn(Cc2ccc(Cl)cc2)c1=O` [Compound 176], for which the IC50 was less than 0.1 µM.

In turn, `Cn1c(N2CC(c3ccccc3)C(c3ccc(Cl)cc3)=N2)nn(Cc2ccc(Cl)cn2)c1=O` (stereo not shown) [Compound 177] had an IC50 of less than 0.1 µM.

On to `Cc1cc(Cn2nc(N3CC(c4ccccc4)C(c4ccc(Cl)cc4)=N3)n(C)c2=O)ccc1Cl` (stereo not shown) [Compound 178], for which the IC50 was less than 0.1 µM.

`C[C@@H](C(N)=O)n1c(N2C[C@@H](c3ccccc3)C(c3ccc(Cl)cc3)=N2)nn(Cc2ccc(Cl)cc2)c1=O` [Compound 179]: the IC50 is greater than 5 µM.

For `C[C@H](C(N)=O)n1c(N2C[C@@H](c3ccccc3)C(c3ccc(Cl)cc3)=N2)nn(Cc2ccc(Cl)cc2)c1=O` [Compound 180], the IC50 is greater than 5 µM.

As to `Cn1c(N2C[C@@H](c3ccccc3)C(c3ccc(Cl)cc3)=N2)n[nH]c1=O` [Compound 181], the IC50 is greater than 5 µM.

`Cn1c(N2CC(c3ccccc3)C(c3ccc(Cl)cc3)=N2)nn(Cc2cccc(C(N)=O)c2)c1=O` (stereo not shown) [Compound 182] had an IC50 of 0.1 to 1 µM.

In turn, `Cc1ccc(Cn2nc(N3CC(c4ccccc4)C(c4ccc(Cl)cc4)=N3)n(C)c2=O)cn1` (stereo not shown) [Compound 183] gave an IC50 of 0.1 to 1 µM.

The molecule `C[C@@H](C(=O)NCCO)n1c(N2C[C@H](c3ccccc3)C(c3ccc(Cl)cc3)=N2)nn(Cc2ccc(Cl)cc2)c1=O` [Compound 184, (2S)-2-[3-[(4S)-3-(4-chlorophenyl)-4-phenyl-4,5-dihydropyrazol-1-yl]-1-[(4-chlorophenyl)methyl]-5-oxo-1,2,4-triazol-4-yl]-N-(2-hydroxyethyl)propanamide] gave an IC50 of less than 0.1 µM.

`Cn1c(N2CC(c3ccccc3)C(c3ccc(Cl)cc3)=N2)nn(Cc2cccc(C(=O)O)c2)c1=O` (stereo not shown) [Compound 186]: the IC50 is greater than 5 µM.

`C[C@@H](C(=O)NCCO)n1c(N2C[C@@H](c3ccccc3)C(c3ccc(Cl)cc3)=N2)nn(Cc2ccc(Cl)cc2)c1=O` [Compound 187, (2S)-2-[3-[(4R)-3-(4-chlorophenyl)-4-phenyl-4,5-dihydropyrazol-1-yl]-1-[(4-chlorophenyl)methyl]-5-oxo-1,2,4-triazol-4-yl]-N-(2-hydroxyethyl)propanamide] came in with an IC50 greater than 5 µM.

Molecule `COC(=O)c1cccc(Cn2nc(N3CC(c4ccccc4)C(c4ccc(Cl)cc4)=N3)n(C)c2=O)c1` (stereo not shown) [Compound 189] registered an IC50 of 0.1 to 1 µM.

`C[C@H](C(=O)NCCO)n1c(N2C[C@H](c3ccccc3)C(c3ccc(Cl)cc3)=N2)nn(Cc2ccc(Cl)cc2)c1=O` [Compound 190, (2R)-2-[3-[(4S)-3-(4-chlorophenyl)-4-phenyl-4,5-dihydropyrazol-1-yl]-1-[(4-chlorophenyl)methyl]-5-oxo-1,2,4-triazol-4-yl]-N-(2-hydroxyethyl)propanamide] showed an IC50 of less than 0.1 µM.

The molecule `C[C@H](C(=O)NCCO)n1c(N2C[C@@H](c3ccccc3)C(c3ccc(Cl)cc3)=N2)nn(Cc2ccc(Cl)cc2)c1=O` [Compound 191, (2R)-2-[3-[(4R)-3-(4-chlorophenyl)-4-phenyl-4,5-dihydropyrazol-1-yl]-1-[(4-chlorophenyl)methyl]-5-oxo-1,2,4-triazol-4-yl]-N-(2-hydroxyethyl)propanamide] came in with an IC50 of 0.1 to 1 µM.

With `Cn1c(N2CC(c3ccccc3)C(c3ccc(Cl)cc3)=N2)nn(Cc2ccc(C(N)=O)cc2)c1=O` (stereo not shown) [Compound 192, 4-([3-[3-(4-chlorophenyl)-4-phenyl-4,5-dihydropyrazol-1-yl]-4-methyl-5-oxo-1,2,4-triazol-1-yl]methyl)benzamide], the IC50 lay in the range of 0.1 to 1 µM.

`Cn1nc(N2CC(c3ccccc3)C(c3ccc(Cl)cc3)=N2)n(Cc2ccccc2)c1=O` (stereo not shown) [Compound 193, 4-benzyl-5-[3-(4-chlorophenyl)-4-phenyl-4,5-dihydropyrazol-1-yl]-2-methyl-1,2,4-triazol-3-one] yielded an IC50 of 0.1 to 1 µM.

Take `COc1ccc(Cn2nc(N3CC(c4ccccc4)C(c4ccc(Cl)cc4)=N3)n([C@@H](C)C(N)=O)c2=O)cc1OC` (stereo partly drawn) [Compound 194, (2S)-2-[3-[3-(4-chlorophenyl)-4-phenyl-4,5-dihydropyrazol-1-yl]-1-[(3,4-dimethoxyphenyl)methyl]-5-oxo-1,2,4-triazol-4-yl]propanamide]: the IC50 is 0.1 to 1 µM.

`Cn1c(N2CC(c3ccccc3)C(c3ccc(Cl)cc3)=N2)nn(CCc2ccc(C(=O)O)cc2)c1=O` (stereo not shown) [Compound 195]: the IC50 is greater than 5 µM.

Turning to `Cc1ncc(Cn2nc(N3CC(c4ccccc4)C(c4ccc(Cl)cc4)=N3)n(C)c2=O)cn1` (stereo not shown) [Compound 196], the IC50 lay in the range of 0.1 to 1 µM.

`COc1ccc(Cn2nc(N3CC(c4ccccc4)C(c4ccc(Cl)cc4)=N3)n([C@H](C)C(N)=O)c2=O)cc1OC` (stereo partly drawn) [Compound 197, (2R)-2-[3-[3-(4-chlorophenyl)-4-phenyl-4,5-dihydropyrazol-1-yl]-1-[(3,4-dimethoxyphenyl)methyl]-5-oxo-1,2,4-triazol-4-yl]propanamide] yielded an IC50 of 0.1 to 1 µM.

Regarding `C[C@H](C(N)=O)n1c(N2C[C@@H](c3ccccc3)C(c3ccc(Cl)cc3)=N2)n[nH]c1=O` [Compound 199], the IC50 is greater than 5 µM.

Regarding `Cn1c(N2C[C@H](c3ccccc3)C(c3ccc(Cl)cc3)=N2)nn(CCc2ccc(C(=O)NCCO)cc2)c1=O` [Compound 200], the half-maximal inhibitory concentration (IC50) was 0.1 to 1 µM.

Regarding `C[C@@H](C(N)=O)n1c(N2C[C@@H](c3ccccc3)C(c3ccc(Cl)cc3)=N2)nn(Cc2ccc(Cl)cn2)c1=O` [Compound 201], the IC50 fell in the range of 0.1 to 1 µM.

On to `Cn1c(N2C[C@H](c3ccccc3)C(c3ccc(Cl)cc3)=N2)nn(CCc2ccc(C(N)=O)cc2)c1=O` [Compound 202, 4-(2-[3-[(4S)-3-(4-chlorophenyl)-4-phenyl-4,5-dihydropyrazol-1-yl]-4-methyl-5-oxo-1,2,4-triazol-1-yl]ethyl)benzamide], for which the IC50 was 0.1 to 1 µM.

Consider `C[C@@H](C(N)=O)n1c(N2C[C@H](c3ccccc3)C(c3ccc(Cl)cc3)=N2)n[nH]c1=O` [Compound 203, (2S)-2-[3-[(4S)-3-(4-chlorophenyl)-4-phenyl-4,5-dihydropyrazol-1-yl]-5-oxo-1H-1,2,4-triazol-4-yl]propanamide], for which the IC50 is greater than 5 µM.

The molecule `C[C@H](C(N)=O)n1c(N2C[C@H](c3ccccc3)C(c3ccc(Cl)cc3)=N2)nn(Cc2ccc(Cl)cn2)c1=O` [Compound 205] gave an IC50 of less than 0.1 µM.

Take `C[C@H](C(N)=O)n1c(N2C[C@H](c3ccccc3)C(c3ccc(Cl)cc3)=N2)n[nH]c1=O` [Compound 206]: the IC50 was greater than 5 µM.

In turn, `C[C@@H](C(N)=O)n1c(N2C[C@H](c3ccccc3)C(c3ccc(Cl)cc3)=N2)nn(Cc2ccc(Cl)cn2)c1=O` [Compound 207] yielded an IC50 of less than 0.1 µM.

With `O=c1[nH]nc(N2C[C@@H](c3ccccc3)C(c3ccc(Cl)cc3)=N2)[nH]1` [Compound 208, 5-[(4R)-3-(4-chlorophenyl)-4-phenyl-4,5-dihydropyrazol-1-yl]-2,4-dihydro-1,2,4-triazol-3-one], the IC50 was greater than 5 µM.

Turning to `C[C@@H](C(N)=O)n1c(N2C[C@@H](c3ccccc3)C(c3ccc(Cl)cc3)=N2)n[nH]c1=O` [Compound 209, (2S)-2-[3-[(4R)-3-(4-chlorophenyl)-4-phenyl-4,5-dihydropyrazol-1-yl]-5-oxo-1H-1,2,4-triazol-4-yl]propanamide], the IC50 is greater than 5 µM.

For the molecule `Cn1c(N2C[C@@H](c3ccccc3)C(c3ccc(Cl)cc3)=N2)nn(CCc2ccc(C(=O)NCCO)cc2)c1=O` [Compound 210], the IC50 is greater than 5 µM.

Source of the values: patent US20230192657A1, “1,2,4-TRIAZOLINONE CB1 INHIBITORS” (Goldfinch Bio, Inc., priority 2020, published 2023).
